In patent US10392368B2, “Pyrazolo and triazolo bicyclic compounds as JAK kinase inhibitors” (THERAVANCE BIOPHARMA R&D IP, LLC, priority 2017, dated 2019):

Key:
JAK3 = target: T1, JAK3 (Homo sapiens, UniProt P52333); test: Biochemical JAK3 kinase assay (LanthaScreen); parameters: GST; purchased Life Technologies; conditions: for Ki: read-out: JAK 3 (pKi) (converted)
T1 sequence (P52333 1-1124): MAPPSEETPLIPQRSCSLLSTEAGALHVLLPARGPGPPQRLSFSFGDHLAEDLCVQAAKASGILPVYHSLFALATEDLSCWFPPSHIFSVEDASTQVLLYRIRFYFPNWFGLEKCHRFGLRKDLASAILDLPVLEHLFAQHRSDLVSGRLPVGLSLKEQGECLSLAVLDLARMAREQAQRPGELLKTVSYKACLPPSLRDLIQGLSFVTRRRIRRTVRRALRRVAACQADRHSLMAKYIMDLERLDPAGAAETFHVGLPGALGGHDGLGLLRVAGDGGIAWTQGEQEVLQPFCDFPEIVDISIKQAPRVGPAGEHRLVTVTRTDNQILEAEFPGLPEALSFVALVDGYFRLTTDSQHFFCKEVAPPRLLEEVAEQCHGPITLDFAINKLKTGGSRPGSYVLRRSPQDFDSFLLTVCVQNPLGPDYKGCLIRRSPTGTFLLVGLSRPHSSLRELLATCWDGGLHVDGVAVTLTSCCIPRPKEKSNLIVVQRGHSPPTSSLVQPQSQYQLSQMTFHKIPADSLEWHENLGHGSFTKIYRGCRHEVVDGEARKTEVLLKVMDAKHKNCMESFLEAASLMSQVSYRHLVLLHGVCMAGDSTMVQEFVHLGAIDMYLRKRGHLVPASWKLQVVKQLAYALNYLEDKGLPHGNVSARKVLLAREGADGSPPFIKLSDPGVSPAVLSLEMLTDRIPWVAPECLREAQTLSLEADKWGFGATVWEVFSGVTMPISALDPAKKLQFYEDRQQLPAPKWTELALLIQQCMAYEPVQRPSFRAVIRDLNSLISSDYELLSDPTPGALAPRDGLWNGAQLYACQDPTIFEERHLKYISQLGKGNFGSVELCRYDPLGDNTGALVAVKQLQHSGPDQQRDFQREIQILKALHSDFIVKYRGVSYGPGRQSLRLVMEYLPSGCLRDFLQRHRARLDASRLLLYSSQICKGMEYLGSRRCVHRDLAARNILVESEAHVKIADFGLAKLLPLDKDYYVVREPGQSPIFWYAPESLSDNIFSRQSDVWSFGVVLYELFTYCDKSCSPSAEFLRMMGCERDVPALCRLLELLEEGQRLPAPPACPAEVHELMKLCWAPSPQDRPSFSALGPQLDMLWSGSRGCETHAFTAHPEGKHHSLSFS
How it was run: (§1)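 Values are pKi, calculated by Cheng-Prusoff from IC50 obtained by robust 4-parameter fitting of percent inhibition. The kinase reaction used GFP-STAT1 peptide in HEPES pH 7.5 buffer with MgCl2, EGTA and Brij-35, ATP-initiated after compound pre-incubation, 1 h at ambient temperature.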

[1] = system: IL-2 stimulated pSTAT5 in Tall-1 T cells; test: Cellular JAK3 potency assay: inhibition of IL-2 stimulated pSTAT5 in Tall-1 T cells; type: cell-based, human; conditions: for IC50: Homo sapiens, TALL-1, IL-2 stimulated pSTAT5 in Tall-1 T cells, read-out: Tall-1 (pIC50) (converted)
How it was run: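 In human Tall-1 T cells, IL-2 (300 ng/ml final, 30 min) drives STAT5 phosphorylation after a 1 h compound pretreatment. Lysates are assayed for pSTAT5 by AlphaLisa, and IC50 derived from signal versus concentration is expressed as pIC50.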

Tyk2 = target: T2, Tyk2 (Homo sapiens, UniProt P29597); test: Biochemical Tyk2 kinase assay (LanthaScreen); conditions: for Ki: read-out: Tyk 2 (pKi) (converted)
T2 construct: GST; purchased Life Technologies
T2 sequence (P29597 whole entry): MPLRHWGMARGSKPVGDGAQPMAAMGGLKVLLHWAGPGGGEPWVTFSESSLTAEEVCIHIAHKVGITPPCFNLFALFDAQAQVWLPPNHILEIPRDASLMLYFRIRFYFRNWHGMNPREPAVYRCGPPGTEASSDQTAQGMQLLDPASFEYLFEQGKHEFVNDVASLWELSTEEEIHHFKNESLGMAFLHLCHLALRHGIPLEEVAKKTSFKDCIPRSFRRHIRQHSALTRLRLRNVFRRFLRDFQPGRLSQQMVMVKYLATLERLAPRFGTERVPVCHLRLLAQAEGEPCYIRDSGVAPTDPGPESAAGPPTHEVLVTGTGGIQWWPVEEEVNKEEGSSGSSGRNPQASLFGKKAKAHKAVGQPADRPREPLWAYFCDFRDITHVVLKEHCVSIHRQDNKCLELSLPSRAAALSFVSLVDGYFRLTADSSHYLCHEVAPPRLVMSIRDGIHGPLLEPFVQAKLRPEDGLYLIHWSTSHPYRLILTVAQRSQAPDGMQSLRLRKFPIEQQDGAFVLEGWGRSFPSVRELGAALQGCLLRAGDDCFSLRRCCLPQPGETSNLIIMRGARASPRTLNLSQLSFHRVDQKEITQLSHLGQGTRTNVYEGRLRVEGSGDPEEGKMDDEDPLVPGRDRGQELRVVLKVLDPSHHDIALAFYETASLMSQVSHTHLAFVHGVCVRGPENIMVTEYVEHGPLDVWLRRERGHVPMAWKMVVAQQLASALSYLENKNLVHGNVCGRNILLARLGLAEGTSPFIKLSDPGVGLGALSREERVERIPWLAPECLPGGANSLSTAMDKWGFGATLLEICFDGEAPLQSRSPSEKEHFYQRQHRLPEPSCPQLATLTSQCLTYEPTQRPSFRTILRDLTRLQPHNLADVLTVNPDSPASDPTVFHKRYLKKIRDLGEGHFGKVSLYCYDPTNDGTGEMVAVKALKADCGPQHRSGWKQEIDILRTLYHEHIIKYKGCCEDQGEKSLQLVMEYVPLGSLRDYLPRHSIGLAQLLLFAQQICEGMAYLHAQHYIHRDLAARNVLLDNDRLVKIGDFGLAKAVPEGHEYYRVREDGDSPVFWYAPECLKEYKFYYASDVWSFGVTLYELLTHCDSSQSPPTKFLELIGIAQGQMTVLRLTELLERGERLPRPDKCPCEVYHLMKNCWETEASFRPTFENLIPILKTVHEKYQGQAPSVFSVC
How it was run: as §1

JAK2 = target: T3, JAK2 (Homo sapiens, UniProt O60674); test: Biochemical JAK2 kinase assay (LanthaScreen); conditions: for Ki: read-out: JAK 2 (pKi) (converted)
T3 construct: GST; purchased Life Technologies
T3 sequence (O60674 whole entry): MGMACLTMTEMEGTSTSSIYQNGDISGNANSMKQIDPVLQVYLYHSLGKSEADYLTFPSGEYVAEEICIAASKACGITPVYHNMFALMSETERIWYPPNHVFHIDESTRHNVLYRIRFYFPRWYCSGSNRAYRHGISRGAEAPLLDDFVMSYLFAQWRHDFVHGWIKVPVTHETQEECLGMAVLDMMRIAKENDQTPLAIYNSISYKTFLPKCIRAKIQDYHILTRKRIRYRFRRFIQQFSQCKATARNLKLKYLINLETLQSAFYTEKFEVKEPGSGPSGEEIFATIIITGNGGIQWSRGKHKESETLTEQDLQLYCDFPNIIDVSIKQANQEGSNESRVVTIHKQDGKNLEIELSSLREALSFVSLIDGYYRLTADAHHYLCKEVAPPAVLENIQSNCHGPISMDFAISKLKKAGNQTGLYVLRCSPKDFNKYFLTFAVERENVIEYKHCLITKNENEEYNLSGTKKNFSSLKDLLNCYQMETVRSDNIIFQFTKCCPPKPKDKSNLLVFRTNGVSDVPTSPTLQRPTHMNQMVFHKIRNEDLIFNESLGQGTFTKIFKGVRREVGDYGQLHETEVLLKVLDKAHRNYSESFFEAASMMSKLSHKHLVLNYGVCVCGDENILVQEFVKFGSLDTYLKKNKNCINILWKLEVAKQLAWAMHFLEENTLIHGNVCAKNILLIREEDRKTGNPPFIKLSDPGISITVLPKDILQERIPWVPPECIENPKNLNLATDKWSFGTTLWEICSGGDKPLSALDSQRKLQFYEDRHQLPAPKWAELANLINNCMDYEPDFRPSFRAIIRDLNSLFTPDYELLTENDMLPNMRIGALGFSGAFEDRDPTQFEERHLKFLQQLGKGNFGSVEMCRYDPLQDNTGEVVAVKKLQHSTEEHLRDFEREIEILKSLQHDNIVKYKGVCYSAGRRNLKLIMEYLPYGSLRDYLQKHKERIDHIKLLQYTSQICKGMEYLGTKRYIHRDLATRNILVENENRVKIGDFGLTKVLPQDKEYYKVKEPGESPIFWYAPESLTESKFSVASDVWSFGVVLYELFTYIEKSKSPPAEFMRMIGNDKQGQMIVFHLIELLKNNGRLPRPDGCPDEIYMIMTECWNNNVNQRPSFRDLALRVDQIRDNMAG
How it was run: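 GST-tagged recombinant JAK2 pre-incubated 1 h at ambient temperature with compound and GFP-STAT1 peptide in HEPES pH 7.5/MgCl2 buffer, then ATP added for a 1 h reaction with 1% DMSO. TR-FRET read after EDTA and Tb-anti-pSTAT1 (pTyr701) addition; IC50 from 4-parameter fit, converted to pKi by Cheng-Prusoff.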

JAK1 = target: T4, JAK1 (Homo sapiens, UniProt P23458); test: Biochemical JAK1 kinase assay (LanthaScreen); conditions: for Ki: read-out: JAK 1 (pKi) (converted)
T4 construct: GST; purchased Life Technologies
T4 sequence (P23458 whole entry): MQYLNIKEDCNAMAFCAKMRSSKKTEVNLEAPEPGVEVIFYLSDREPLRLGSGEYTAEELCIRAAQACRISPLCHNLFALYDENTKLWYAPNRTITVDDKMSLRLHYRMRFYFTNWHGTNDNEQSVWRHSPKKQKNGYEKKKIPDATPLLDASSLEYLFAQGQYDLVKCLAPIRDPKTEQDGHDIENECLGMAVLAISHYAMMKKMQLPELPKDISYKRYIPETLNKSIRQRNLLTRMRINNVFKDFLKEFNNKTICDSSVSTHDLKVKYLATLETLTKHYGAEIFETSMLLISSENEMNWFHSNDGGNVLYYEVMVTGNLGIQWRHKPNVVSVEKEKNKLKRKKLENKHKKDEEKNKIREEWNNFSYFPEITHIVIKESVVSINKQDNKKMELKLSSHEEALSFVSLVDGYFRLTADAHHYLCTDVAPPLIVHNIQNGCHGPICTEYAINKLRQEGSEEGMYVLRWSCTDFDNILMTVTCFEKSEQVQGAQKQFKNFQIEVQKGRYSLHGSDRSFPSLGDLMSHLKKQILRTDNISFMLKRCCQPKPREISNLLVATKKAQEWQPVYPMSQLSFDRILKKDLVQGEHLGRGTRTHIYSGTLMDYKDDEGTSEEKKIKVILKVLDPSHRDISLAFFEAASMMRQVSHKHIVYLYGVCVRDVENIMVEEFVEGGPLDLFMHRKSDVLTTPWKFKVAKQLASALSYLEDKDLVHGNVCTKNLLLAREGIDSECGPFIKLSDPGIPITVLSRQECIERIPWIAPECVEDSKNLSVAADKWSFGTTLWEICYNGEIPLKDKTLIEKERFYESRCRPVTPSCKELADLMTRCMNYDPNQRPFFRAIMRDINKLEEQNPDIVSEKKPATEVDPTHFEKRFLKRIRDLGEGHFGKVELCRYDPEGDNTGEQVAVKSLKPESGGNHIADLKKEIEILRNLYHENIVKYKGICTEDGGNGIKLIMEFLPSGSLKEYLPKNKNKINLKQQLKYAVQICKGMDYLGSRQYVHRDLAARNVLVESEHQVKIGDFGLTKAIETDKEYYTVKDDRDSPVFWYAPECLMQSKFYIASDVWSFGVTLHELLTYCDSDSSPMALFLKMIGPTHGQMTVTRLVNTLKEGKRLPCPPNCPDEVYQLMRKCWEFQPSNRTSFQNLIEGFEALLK
How it was run: as §1

[2] = selectivity: difference of pKi JAK3 and pKi JAK1
[3] = IL-2 stimulated pSTAT5 in Tall-1 T cells
[4] = selectivity JAK3 over JAK1, difference of pKi
[5] = IL-2 stimulated pSTAT5, Tall-1 T cells

| Compound | JAK 3 (pKi) (JAK3) | JAK3 (pKi)-JAK1 (pKi) (JAK3; [2]) | Tall-1 (pIC50) [1, 3] | Tyk 2 (pKi) (Tyk2) | JAK 2 (pKi) (JAK2) | JAK 1 (pKi) (JAK1) | JAK3 (pKi)-JAK1 (pKi) (JAK3; [4]) | Tall-1 (pIC50) [1, 5] | Ki (JAK3) [nM] | IC50 [1] [nM] | Ki (Tyk2) [nM] | Ki (JAK2) [nM] | Ki (JAK1) [nM] |
| --- | --- | --- | --- | --- | --- | --- | --- | --- | --- | --- | --- | --- | --- |
| C=CC(=O)N1CC(CN(C)c2cc(-c3ccc(O)c(Cl)c3)cc3[nH]ncc23)C1 [Compound 4-5] | B (a pKi value between 9 and 10 (Ki between 1 nM and 0.1 nM)) | A (a value of 3 or above) | A (a pIC50 value≥7.5 (IC50≤32 nM)) | E (a pKi value of 7 or below (Ki of 100 nM or above)) | E (a pKi value of 7 or below (Ki of 100 nM or above)) | E (a pKi value of 7 or below (Ki of 100 nM or above)) | – | – | – | – | – | – | – |
| C=CC(=O)N1CC2(CC(Oc3nc(-c4ccc(O)c(Cl)c4)nc4[nH]ncc34)C2)C1 [Compound 15-9] | A (a pKi value≥10 (Ki≤0.1 nM)) | – | – | E (a pKi value of 7 or below (Ki of 100 nM or above)) | E (a pKi value of 7 or below (Ki of 100 nM or above)) | E (a pKi value of 7 or below (Ki of 100 nM or above)) | A (a value of 3 or above) | B (a pIC50 value between 6.7 (included) and 7.5 (IC50 between 200 nM and 32 nM)) | – | – | – | – | – |
| CN(C)C/C=C/C(=O)N1CC(OCc2nc(-c3ccc(O)cc3)cc3[nH]ncc23)C1 [Compound 16-6] | B (a pKi value between 9 and 10 (Ki between 1 nM and 0.1 nM)) | – | – | E (a pKi value of 7 or below (Ki of 100 nM or above)) | E (a pKi value of 7 or below (Ki of 100 nM or above)) | E (a pKi value of 7 or below (Ki of 100 nM or above)) | A (a value of 3 or above) | C (a pIC50 value between 6 and 6.7 (IC50 between 1 μM and 200 nM)) | – | – | – | – | – |
| C=CC(=O)N1CC(F)(COc2cc(-c3ccc(O)cc3)nc3[nH]ncc23)C1 [Compound 3-46] | – | A (a value of 3 or above) | – | – | – | – | – | – | < 0.1 | < 31.6 | > 100 | > 100 | > 100 |
| Cc1cc(-c2cc(OCC3CN(C(=O)/C=C/CN(C)C)C3)c3cn[nH]c3c2)ccc1O [Compound 18-8] | B (a pKi value between 9 and 10 (Ki between 1 nM and 0.1 nM)) | – | – | E (a pKi value of 7 or below (Ki of 100 nM or above)) | E (a pKi value of 7 or below (Ki of 100 nM or above)) | E (a pKi value of 7 or below (Ki of 100 nM or above)) | A (a value of 3 or above) | B (a pIC50 value between 6.7 (included) and 7.5 (IC50 between 200 nM and 32 nM)) | – | – | – | – | – |
| C=CC(=O)N1CC[C@H](Oc2cc(-c3ccc(O)cc3)cc3[nH]nc(C)c23)C1 [Compound 1-20] | – | B (a value of 2.3 to 3) | – | – | – | – | – | – | 0.1 to 1 | < 31.6 | > 100 | 10 to 100 | > 100 |
| CCC1(COc2nc(-c3ccc(O)c(F)c3)cc3[nH]ncc23)CN(C(=O)/C=C/CN(C)C)C1 [Compound 3-100] | B (a pKi value between 9 and 10 (Ki between 1 nM and 0.1 nM)) | A (a value of 3 or above) | A (a pIC50 value≥7.5 (IC50≤32 nM)) | E (a pKi value of 7 or below (Ki of 100 nM or above)) | E (a pKi value of 7 or below (Ki of 100 nM or above)) | E (a pKi value of 7 or below (Ki of 100 nM or above)) | – | – | – | – | – | – | – |
